Measured values reported in patent US8815845B2, “1,4-benzodiazepine-2,5-diones and related compounds with therapeutic properties” (The Regents of the University of Michigan, priority 2009, dated 2014).

Legend:
[1] = biological target: ROCK-I (h, amino acids 17-535) (Homo sapiens (Human), UniProt Q13464); assay: ROCK-I (h) inhibition assay; type: biochemical; conditions: read-out: ROCK1 IC50
Description: ROCK-I (h) Inhibition Assay:
In a final reaction volume of 25 μL, ROCK-I (h, amino acids 17-535) (5-10 mU) was incubated with 8 mM MOPS pH 7.0, 0.2 mM EDTA, 30 μM […], 10 mM magnesium acetate and [γ-^32P-ATP] (specific activity approx. 500 cpm/pmol, concentration as required). The reaction was initiated by the addition of the MgATP mix. After incubation for 40 minutes at room temperature, the reaction was stopped by the addition of 5 μL of a 3% phosphoric acid solution. 10 μL of the reaction was then spotted onto a P30 filtermat and washed three times for 5 minutes in 75 mM phosphoric acid and once in methanol prior to drying and scintillation counting.

[2] = biological target: ROCK-II (h, amino acids 11-552) (Homo sapiens (Human), UniProt O75116); assay: ROCK-II (h) inhibition assay; type: biochemical; conditions: read-out: ROCK2 IC50
Chain of ROCK-II (h, amino acids 11-552) (O75116 11-552): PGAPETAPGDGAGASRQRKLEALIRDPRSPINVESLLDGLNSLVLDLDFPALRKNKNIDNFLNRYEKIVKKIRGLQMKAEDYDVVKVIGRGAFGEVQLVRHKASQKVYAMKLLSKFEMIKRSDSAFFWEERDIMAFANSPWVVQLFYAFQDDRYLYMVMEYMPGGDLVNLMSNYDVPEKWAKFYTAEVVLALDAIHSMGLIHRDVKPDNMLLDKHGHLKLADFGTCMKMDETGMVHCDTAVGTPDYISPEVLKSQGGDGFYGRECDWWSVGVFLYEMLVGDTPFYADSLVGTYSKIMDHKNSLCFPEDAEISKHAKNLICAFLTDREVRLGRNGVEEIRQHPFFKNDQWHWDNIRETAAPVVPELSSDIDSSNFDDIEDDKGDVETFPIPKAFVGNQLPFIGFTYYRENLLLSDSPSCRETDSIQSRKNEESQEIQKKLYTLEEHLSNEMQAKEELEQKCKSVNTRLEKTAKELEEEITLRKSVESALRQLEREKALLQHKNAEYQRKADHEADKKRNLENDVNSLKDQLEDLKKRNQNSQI
Description: ROCK-II (h) Inhibition Assay:
In a final reaction volume of 25 μL, ROCK-II (h, amino acids 11-552) (5-10 mU) was incubated with 50 mM Tris pH 7.5, 0.1 mM EGTA, 30 [μM […], 10 mM magnesium acetate and γ-^32P-ATP] (specific activity approx. 500 cpm/pmol, concentration as required). The reaction was initiated by the addition of the MgATP mix. After incubation for 40 minutes at room temperature, the reaction was stopped by the addition of 5 μL of a 3% phosphoric acid solution. 10 μL of the reaction was then spotted onto a P30 filter-mat and washed three times for 5 minutes in 75 mM phosphoric acid and once in methanol prior to drying and scintillation counting.

Chain of ROCK-I (h, amino acids 17-535) (Q13464 17-535): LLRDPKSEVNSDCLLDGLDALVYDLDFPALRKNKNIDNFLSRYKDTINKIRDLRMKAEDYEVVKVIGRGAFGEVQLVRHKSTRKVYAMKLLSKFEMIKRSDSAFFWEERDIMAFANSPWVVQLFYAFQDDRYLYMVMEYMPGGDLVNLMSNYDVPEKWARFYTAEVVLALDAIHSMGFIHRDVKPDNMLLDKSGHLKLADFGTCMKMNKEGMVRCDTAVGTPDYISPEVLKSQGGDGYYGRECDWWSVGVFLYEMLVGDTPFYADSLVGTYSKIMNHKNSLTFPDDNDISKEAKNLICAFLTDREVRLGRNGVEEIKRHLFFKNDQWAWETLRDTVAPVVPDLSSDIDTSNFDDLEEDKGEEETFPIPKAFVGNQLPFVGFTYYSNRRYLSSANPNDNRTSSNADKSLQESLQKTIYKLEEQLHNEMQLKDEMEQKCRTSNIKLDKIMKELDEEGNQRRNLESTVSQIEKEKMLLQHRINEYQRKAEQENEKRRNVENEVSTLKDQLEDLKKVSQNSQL

| SMILES | IC50 [1] | IC50 [2] |
| --- | --- | --- |
| COc1ccc2c(c1)C(=O)N[C@@H](Cc1ccc(-c3ccnc4[nH]ccc34)cc1)C(=O)N2C [Compound 5, (S)-3-(4-(1H-pyrrolo[2,3-b]pyridin-4-yl)benzyl)-7-methoxy-1-methyl-3,4-dihydro-1H-benzo[e][1,4]diazepine-2,5-dione] | 2800 nM | 200 nM |
| COc1ccc2c(c1)C(=O)N[C@@H](Cc1ccc(-c3ccnc(N)c3)cc1)C(=O)N2C [Compound 3, (S)-3-(4-(2-aminopyridin-4-yl)benzyl)-7-methoxy-1-methyl-3,4-dihydro-1H-benzo[e][1,4]diazepine-2,5-dione] | > 10000 nM | 2400 nM |
| CN1C(=O)[C@@H](Cc2ccc(-c3cn[nH]c3)cc2)NC(=O)c2cc(Cl)ccc21 [Compound 1, (R)-3-(4-(1H-pyrazol-4-yl)benzyl)-7-chloro-1-methyl-3,4-dihydro-1H-benzo[e][1,4]diazepine-2,5-dione] | > 30000 nM | 1000 nM |
| CN1C(=O)[C@H](Cc2ccc(-c3ccnc4[nH]ccc34)cc2)NC(=O)c2cc(Cl)ccc21 [Compound 4, (S)-3-(4-(1H-pyrrolo[2,3-b]pyridin-4-yl)benzyl)-7-chloro-1-methyl-3,4-dihydro-1H-benzo[e][1,4]diazepine-2,5-dione] | 5100 nM | 250 nM |
| CN1C(=O)[C@@H](Cc2ccc(-c3ccnc(N)c3)cc2)NC(=O)c2cc(Cl)ccc21 [Compound 2, (R)-3-(4-(2-aminopyridin-4-yl)benzyl)-7-chloro-1-methyl-3,4-dihydro-1H-benzo[e][1,4]diazepine-2,5-dione] | > 10000 nM | 7100 nM |
